Tested on: normal human lung fibroblasts
Test: Ribosomal profiling: translational efficiency in TGFβ-treated fibroblasts
Format: cell-based
Details: TGFβ-treated fibroblasts
Experimental: Ribosomal profiling allows for measurement of changes in transcription and translation on a genome-wide basis accompanying TGFβ-dependent transformation of fibroblasts to myofibroblasts. Ribosomal profiles of the TGFβ-treated fibroblasts from Example 1 (about 6×10^6 cells/10 cm plate) were prepared and analyzed for changes in translational efficiencies with respect to potential disease-associated cellular changes accompanying this TGFβ-induced transformation.
Briefly, cells were washed with cold PBS supplemented with cycloheximide and lysed with 1× mammalian cell lysis buffer for 10 minutes on ice. Lysates were clarified by centrifugation for 10 minutes at 14,000 rpm and supernatants were collected. Cell lysates were processed to generate ribosomal protected fragments and total mRNA according to the instructions included with the ARTseq Ribosome Profiling Kit (Illumina, San Diego, Calif.). Sequencing of total RNA (RNA) and of ribosome-protected fragments of RNA (RPF) was carried out using RNA-Seq methodology according to the manufacturer's instructions (Illumina). To analyze the ribosomal profiles, RNA-Seq reads were processed with tools from the FASTX-Toolkit (fastq_quality_trimmer, fastx_clipper and fastx_trimmer). Unprocessed and processed reads were evaluated for a variety of quality measures using FastQC, and processed reads were mapped to the human genome using TopHat (see, e.g., Trapnell et al., Bioinformatics 25:1105, 2009). Gene-by-gene assessment of the number of fragments strictly and uniquely mapping to the coding region of each gene was conducted using HTSeq-count, a component of the HTSeq package. […] Genes with low counts in either RPF or RNA were excluded from differential analyses. Pathway and network analyses of differential data were conducted using Ingenuity Pathway Analysis (IPA).

For `Cc1cc(C2CCCCC2)n(O)c(=O)c1.NCCO` [CPX, ciclopirox oloamine], the “renormalizing the translational profile of RPL9” value (ENSG00000163682) was “− (− = <0.9)”, the “renormalizing the translational profile of RHOBTB3” value (ENSG00000164292) was “− (− = <0.9)” and the “renormalizing the translational profile of RPL36AL” value (ENSG00000165502) was “− (− = <0.9)”. For the same compound, the “renormalizing the translational profile of RPL27A” value (ENSG00000166441) was “− (− = <0.9)”, the “renormalizing the translational profile of RP11-382A20.3.1” value (ENSG00000166503) was “− (− = <0.9)” and the “renormalizing the translational profile of ANKDD1A” value (ENSG00000166839) was “− (− = <0.9)”. The “renormalizing the translational profile of RPL13” value (ENSG00000167526) was “− (− = <0.9)”, the “renormalizing the translational profile of EEF2” value (ENSG00000167658) was “− (− = <0.9)” and the “renormalizing the translational profile of CA5B” value (ENSG00000169239) was “− (− = <0.9)”. The “renormalizing the translational profile of KIAA1024” value (ENSG00000169330) was “− (− = <0.9)”, the “renormalizing the translational profile of MURC” value (ENSG00000170681) was “− (− = <0.9)” and the “renormalizing the translational profile of HTRA3” value (ENSG00000170801) was “− (− = <0.9)”. For the same compound, the “renormalizing the translational profile of PDE7B” value (ENSG00000171408) was “− (− = <0.9)”, the “renormalizing the translational profile of LPAR3” value (ENSG00000171517) was “− (− = <0.9)” and the “renormalizing the translational profile of CTPS” value (ENSG00000171793) was “− (− = <0.9)”. For the same compound, the “renormalizing the translational profile of QARS” value (ENSG00000172053) was “− (− = <0.9)”, the “renormalizing the translational profile of RPL38” value (ENSG00000172809) was “− (− = <0.9)” and the “renormalizing the translational profile of MRPL45” value (ENSG00000174100) was “− (− = <0.9)”. For the same compound, the “renormalizing the translational profile of RPL4” value (ENSG00000174444) was “− (− = <0.9)”, the “renormalizing the translational profile of RPL15” value (ENSG00000174748) was “− (− = <0.9)” and the “renormalizing the translational profile of DES” value (ENSG00000175084) was “− (− = <0.9)”. The “renormalizing the translational profile of EIF3F” value (ENSG00000175390) was “− (− = <0.9)”, the “renormalizing the translational profile of CLCF1” value (ENSG00000175505) was “− (− = <0.9)” and the “renormalizing the translational profile of AMIGO3” value (ENSG00000176020) was “− (− = <0.9)”. For the same compound, the “renormalizing the translational profile of C14orf49” value (ENSG00000176438) was “− (− = <0.9)”, the “renormalizing the translational profile of RPLP2” value (ENSG00000177600) was “− (− = <0.9)” and the “renormalizing the translational profile of IMPDH2” value (ENSG00000178035) was “− (− = <0.9)”. The “renormalizing the translational profile of DNAJC22” value (ENSG00000178401) was “− (− = <0.9)”, the “renormalizing the translational profile of RPL35A” value (ENSG00000182899) was “− (− = <0.9)” and the “renormalizing the translational profile of LENG9” value (ENSG00000182909) was “− (− = <0.9)”. The “renormalizing the translational profile of C22orf32” value (ENSG00000183172) was “− (− = <0.9)”, the “renormalizing the translational profile of PDE4B” value (ENSG00000184588) was “− (− = <0.9)” and the “renormalizing the translational profile of ROBO2” value (ENSG00000185008) was “+ (+ = 0.9 to 1.5)”. For the same compound, the “renormalizing the translational profile of PTCH1” value (ENSG00000185920) was “− (− = <0.9)”, the “renormalizing the translational profile of POLR1D” value (ENSG00000186184) was “− (− = <0.9)” and the “renormalizing the translational profile of DYNC2H1” value (ENSG00000187240) was “− (− = <0.9)”. For the same compound, the “renormalizing the translational profile of RPL14” value (ENSG00000188846) was “− (− = <0.9)”, the “renormalizing the translational profile of LRRK2” value (ENSG00000188906) was “− (− = <0.9)” and the “renormalizing the translational profile of NACA” value (ENSG00000196531) was “− (− = <0.9)”. For the same compound, the “renormalizing the translational profile of LAMB3” value (ENSG00000196878) was “+ (+ = 0.9 to 1.5)”, the “renormalizing the translational profile of PCBP2” value (ENSG00000197111) was “− (− = <0.9)” and the “renormalizing the translational profile of MAP3K5” value (ENSG00000197442) was “− (− = <0.9)”. For the same compound, the “renormalizing the translational profile of RPL37A” value (ENSG00000197756) was “− (− = <0.9)”, the “renormalizing the translational profile of RPL12” value (ENSG00000197958) was “− (− = <0.9)” and the “renormalizing the translational profile of LPAR1” value (ENSG00000198121) was “− (− = <0.9)”. The “renormalizing the translational profile of RPL23A” value (ENSG00000198242) was “− (− = <0.9)”, the “renormalizing the translational profile of PLN” value (ENSG00000198523) was “− (− = <0.9)” and the “renormalizing the translational profile of RPL10A” value (ENSG00000198755) was “− (− = <0.9)”. For the same compound, the “renormalizing the translational profile of CES1” value (ENSG00000198848) was “+ (+ = 0.9 to 1.5)”, the “renormalizing the translational profile of RPL39” value (ENSG00000198918) was “− (− = <0.9)” and the “renormalizing the translational profile of CARD16” value (ENSG00000204397) was “− (− = <0.9)”. For the same compound, the “renormalizing the translational profile of MICA” value (ENSG00000204520) was “− (− = <0.9)”, the “renormalizing the translational profile of GNB2L1” value (ENSG00000204628) was “− (− = <0.9)” and the “renormalizing the translational profile of RPL17” value (ENSG00000215472) was “− (− = <0.9)”. The “renormalizing the translational profile of RPL41” value (ENSG00000229117) was “− (− = <0.9)”, the “renormalizing the translational profile of ARPC1A” value (ENSG00000241685) was “− (− = <0.9)” and the “renormalizing the translational profile of CHCHD10” value (ENSG00000250479) was “− (− = <0.9)”. The “renormalizing the translational profile of EEF1G” value (ENSG00000254772) was “− (− = <0.9)”, the “number of genes whose translational efficiency was uniquely modulated by the compound” value (duplicate ribosomal profiles) was “six” and the “effect in renormalizing the translational profile of the gene” value (gene RPS2 (ENSG00000140988)) was “− (− = <0.9)”. The “effect in renormalizing the translational profile of the gene” value (gene RPS3 (ENSG00000149273)) was “− (− = <0.9)”, the “effect in renormalizing the translational profile of the gene” value (gene RPS3A (ENSG00000145425)) was “− (− = <0.9)” and the “effect in renormalizing the translational profile of the gene” value (gene RPS4X (ENSG00000198034)) was “− (− = <0.9)”. The “effect in renormalizing the translational profile of the gene” value (gene RPS4Y1 (ENSG00000129824)) was “− (− = <0.9)” and the “effect in renormalizing the translational profile of the gene” value (gene RPS5 (ENSG00000083845)) was “− (− = <0.9)”.

Source: patent US9993494B2, “Compositions and methods for treating fibrotic disease” (eFFECTOR Therapeutics, Inc., priority 2014, dated 2018)
